According to patent US10023592B2, “Bromodomain inhibitors” (Celgene Quanticel Research, Inc., priority 2013, dated 2018):
pIC50: −log10 of the molar value. Read-outs that look alike come from different tables or passages of the source.

Experiments:
BRD4(BD1) = BRD4(BD1) (Homo sapiens (Human), UniProt O60885); test: In vitro enzyme inhibition assay (BRD4 AlphaScreen); format: binding
Outline: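 AlphaScreen proximity readout, using streptavidin donor and Ni-chelate acceptor beads at 5 μg/mL final, monitors biotin-H4 tetraacetylated peptide interaction with purified His-tagged BRD4.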

[1] = tested on: Raji, human Burkitts lymphoma cells; test: Cell-MTS proliferation assay, Raji; format: cell-based; conditions: 168 hr
Outline: (§1)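 Cells were seeded per 96-well at densities giving ~90% confluence by day 7 (Raji 15,000, HL-60 5,000, NCI-H460 3,000) and dosed 24 hr later with an 11-point dilution, 100 μM to 2.0 nM final. Seven-day MTS colorimetric read at OD490; IC50 from background-subtracted, DMSO-normalised values.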

[2] = tested on: HL-60, human proleukemia cells; test: Cell-MTS proliferation assay, HL-60; format: cell-based; conditions: 168 hr
Outline: as §1

[3] = tested on: NCI-H460, human non-small cell lung cancer cells; test: Cell-MTS proliferation assay, NCI-H460; format: cell-based; conditions: 168 hr
Outline: as §1

[4] = Homo sapiens, Raji, Cell-MTS, class symbols A/B/C
[5] = Homo sapiens, HL-60, Cell-MTS, class symbols A/B/C
[6] = Homo sapiens, NCI-H460, Cell-MTS, class symbols A/B/C
[7] = in vitro enzyme inhibition assay
[8] = Homo sapiens, Cell-MTS proliferation, Raji cells
[9] = Homo sapiens, Cell-MTS proliferation, HL-60 cells
[10] = Homo sapiens, Cell-MTS proliferation, NCI-H460 cells
[11] = Homo sapiens, Raji, Cell-MTS proliferation
[12] = Homo sapiens, HL-60, Cell-MTS proliferation
[13] = Homo sapiens, NCI-H460, Cell-MTS proliferation

| pIC50 (BRD4(BD1); [7]) | pIC50 [1, 11] | pIC50 [2, 12] | pIC50 [3, 13] | Molecule | also measured |
| --- | --- | --- | --- | --- | --- |
| – | – | – | – | Cc1cc(-c2cc(NS(C)(=O)=O)ccc2Oc2ccc(F)cc2F)cn(C)c1=O [Example 102, N-[4-(2,4-difluorophenoxy)-3-(1,5-dimethyl-6-oxopyridin-3-yl)phenyl]methanesulfonamide] | pIC50 (BRD4(BD1); class symbols A/B/C): > 6.30; pIC50 [1, 4]: > 6.30; pIC50 [2, 5]: > 6.30; pIC50 [3, 6]: < 5.30 |
| – | – | – | – | Cc1cnn(-c2ccc3c(=O)n(C)cc(-c4cc(S(C)(=O)=O)ccc4OCC4CC4)c3c2)c1 [Example 128, 4-[2-(cyclopropylmethoxy)-5-methylsulfonylphenyl]-2-methyl-6-(4-methylpyrazol-1-yl)isoquinolin-1-one] | pIC50 (BRD4(BD1); class symbols A/B/C): > 6.30; pIC50 [1, 4]: > 6.30; pIC50 [2, 5]: > 6.30; pIC50 [3, 6]: < 5.30 |
| – | – | – | – | CCS(=O)(=O)Nc1cccc(-c2cn(C)c(=O)c3ccc(-c4ccc(C)nc4)cc23)c1 [Example 72, N-[3-[2-methyl-6-(6-methylpyridin-3-yl)-1-oxoisoquinolin-4-yl]phenyl]ethanesulfonamide] | pIC50 (BRD4(BD1); class symbols A/B/C): > 6.30; pIC50 [1, 4]: > 6.30; pIC50 [2, 5]: > 6.30; pIC50 [3, 6]: 5.30 to 6.30 |
| > 6.30 | – | – | – | CCS(=O)(=O)Nc1ccc(Oc2ccc(F)cc2F)c(-c2cc(C)c(=O)n(C)c2)c1 [Example 472, N-[4-(2,4-difluorophenoxy)-3-(1,5-dimethyl-6-oxopyridin-3-yl)phenyl]ethanesulfonamide] | pIC50 [1, 8]: > 6.30; pIC50 [2, 9]: > 6.30; pIC50 [3, 10]: < 5.30 |
| > 6.30 | > 6.30 | > 6.30 | < 5.30 | Cn1cc(-c2ncc3c(=O)n(C)cc(-c4cc(S(C)(=O)=O)ccc4OCC4CC4)c3n2)cn1 [Example 224, 8-[2-(cyclopropylmethoxy)-5-methylsulfonylphenyl]-6-methyl-2-(1-methylpyrazol-4-yl)pyrido[4,3-d]pyrimidin-5-one] | – |
| > 6.30 | > 6.30 | > 6.30 | < 5.30 | Cn1cc(-c2cc(S(C)(=O)=O)cnc2OCC2CC2)c2ccccc2c1=O [Example 321, 4-[2-(cyclopropylmethoxy)-5-methylsulfonylpyridin-3-yl]-2-methylisoquinolin-1-one] | – |
| > 6.30 | 5.30 to 6.30 | > 6.30 | < 5.30 | Cc1cccc(C)c1COc1cc(-c2cc(C)c(=O)n(C)c2)cc(S(C)(=O)=O)c1 [Example 331, 5-[3-[(2,6-dimethylphenyl)methoxy]-5-methylsulfonylphenyl]-1,3-dimethylpyridin-2-one] | – |
| > 6.30 | 5.30 to 6.30 | 5.30 to 6.30 | < 5.30 | CCS(=O)(=O)Nc1ccnc(-c2cn(C)c(=O)c3ccc(-c4cnn(C)c4)cc23)c1 [Example 213, N-[2-[2-methyl-6-(1-methylpyrazol-4-yl)-1-oxoisoquinolin-4-yl]pyridin-4-yl]ethanesulfonamide] | – |
| > 6.30 | > 6.30 | > 6.30 | < 5.30 | Cn1cc(-c2nc(NS(C)(=O)=O)ncc2OCC2CC2)c2cc(F)ccc2c1=O [Example 159, N-[5-(cyclopropylmethoxy)-4-(6-fluoro-2-methyl-1-oxoisoquinolin-4-yl)pyrimidin-2-yl]methanesulfonamide] | – |
| – | – | – | – | Cn1cc(-c2cc(NS(C)(=O)=O)ccc2Oc2ccc(F)cc2F)ccc1=O [Example 100, N-[4-(2,4-difluorophenoxy)-3-(1-methyl-6-oxopyridin-3-yl)phenyl]methanesulfonamide] | pIC50 (BRD4(BD1)): > 6.30; pIC50 [1, 4]: > 6.30; pIC50 [2, 5]: > 6.30; pIC50 [3, 6]: < 5.30 |
| > 6.30 | > 6.30 | > 6.30 | < 5.30 | CCS(=O)(=O)Nc1ncc(Oc2ccc(F)cc2F)c(-c2cn(C)c(=O)c3occc23)n1 [Example 263, N-[5-(2,4-difluorophenoxy)-4-(6-methyl-7-oxofuro[2,3-c]pyridin-4-yl)pyrimidin-2-yl]ethanesulfonamide] | – |
| > 6.30 | > 6.30 | > 6.30 | < 5.30 | CCCc1cnc(NS(=O)(=O)CC)nc1-c1cc(C)c(=O)n(C)c1 [Example 308, N-[4-(1,5-dimethyl-6-oxopyridin-3-yl)-5-propylpyrimidin-2-yl] ethanesulfonamide] | – |
| > 6.30 | 5.30 to 6.30 | > 6.30 | < 5.30 | Cn1cc(-c2nc(S(C)(=O)=O)ccc2OCC2CC2)c2ccoc2c1=O [Example 259, 4-[3-(cyclopropylmethoxy)-6-methylsulfonylpyridin-2-yl]-6-methylfuro[2,3-c]pyridin-7-one] | – |
| < 5.30 | < 5.30 | < 5.30 | < 5.30 | CC(=O)Nc1ccc(S(C)(=O)=O)cc1-c1cn(C)c(=O)c2ccccc12 [Example 222, N-[2-(2-methyl-1-oxoisoquinolin-4-yl)-4-methylsulfonylphenyl]acetamide] | – |
| > 6.30 | > 6.30 | > 6.30 | < 5.30 | CCS(=O)(=O)c1ccc(OCC2CC2)c(-c2cn(C)c(=O)c3c2CCCC3)c1 [Example 219, 4-[2-(cyclopropylmethoxy)-5-ethylsulfonylphenyl]-2-methyl-5,6,7,8-tetrahydroisoquinolin-1-one] | – |
| > 6.30 | > 6.30 | > 6.30 | < 5.30 | Cn1cc(-c2cc(S(C)(=O)=O)ccc2OCC2CC2)c2c(c1=O)CCCC2 [Example 217, 4-[2-(cyclopropylmethoxy)-5-methylsulfonylphenyl]-2-methyl-5,6,7,8-tetrahydroisoquinolin-1-one] | – |
| > 6.30 | > 6.30 | > 6.30 | < 5.30 | CCS(=O)(=O)c1ccc(NCC2CC2)c(-c2cn(C)c(=O)c3cc(F)ccc23)c1 [Example 195, 4-[2-(cyclopropylmethylamino)-5-ethylsulfonylphenyl]-7-fluoro-2-methylisoquinolin-1-one] | – |
| > 6.30 | > 6.30 | > 6.30 | < 5.30 | Cn1cc(-c2cc(S(C)(=O)=O)ccc2NCC2CC2)c2ccc(F)cc2c1=O [Example 196, 4-[2-(cyclopropylmethylamino)-5-methylsulfonylphenyl]-7-fluoro-2-methylisoquinolin-1-one] | – |
| > 6.30 | – | – | – | CCS(=O)(=O)c1ccc(NCC2CC2)c(-c2cc(N(C)C)c(=O)n(C)c2)c1 [Example 440, 5-[2-(cyclopropylmethylamino)-5-ethylsulfonylphenyl]-3-(dimethylamino)-1-methylpyridin-2-one] | pIC50 [1, 8]: > 6.30; pIC50 [2, 9]: > 6.30; pIC50 [3, 10]: < 5.30 |
| > 6.30 | – | – | – | CCS(=O)(=O)c1ccc(OCC2CC2)c(-c2cc(OC)c(=O)n(C)c2)c1 [Example 399, 5-[2-(cyclopropylmethoxy)-5-ethylsulfonylphenyl]-3-methoxy-1-methylpyridin-2-one] | pIC50 [1, 8]: > 6.30; pIC50 [2, 9]: > 6.30; pIC50 [3, 10]: < 5.30 |
| > 6.30 | > 6.30 | > 6.30 | < 5.30 | CCS(=O)(=O)Nc1cnc(OCC2CC2)c(-c2cn(C)c(=O)c3oc(F)cc23)c1 [Example 261] | – |
| > 6.30 | 5.30 to 6.30 | > 6.30 | < 5.30 | Cn1cc(-c2cc(NS(C)(=O)=O)c(F)cc2OCC2CC2)c2c(c1=O)CCCC2 [Example 218, N-[4-(cyclopropylmethoxy)-2-fluoro-5-(2-methyl-1-oxo-5,6,7,8-tetrahydroisoquinolin-4-yl)phenyl]methanesulfonamide] | – |
| > 6.30 | > 6.30 | > 6.30 | < 5.30 | CCCCc1cnc(NS(=O)(=O)CC)nc1-c1cc(C)c(=O)n(C)c1 [Example 310, N-[5-butyl-4-(1,5-dimethyl-6-oxopyridin-3-yl)pyrimidin-2-yl] ethanesulfonamide] | – |
| > 6.30 | > 6.30 | > 6.30 | < 5.30 | Cc1cc(-c2nc(NS(C)(=O)=O)ncc2Oc2ccc(F)cc2F)cn(C)c1=O [Example 166, N-[5-(2,4-difluorophenoxy)-4-(1,5-dimethyl-6-oxopyridin-3-yl)pyrimidin-2-yl]methanesulfonamide] | – |
| > 6.30 | > 6.30 | > 6.30 | < 5.30 | Cn1cc(-c2cc(S(C)(=O)=O)ccc2OC2CCCOC2)c2ccccc2c1=O (stereo not shown) [Example 179, 2-methyl-4-[5-methylsulfonyl-2-(oxan-3-yloxy)phenyl]isoquinolin-1-one] | – |
| > 6.30 | – | – | – | Cc1cc(-c2cc(CS(C)(=O)=O)ccc2OCC(F)(F)F)cn(C)c1=O [Example 427, 1,3-dimethyl-5-[5-(methylsulfonylmethyl)-2-(2,2,2-trifluoroethoxy)phenyl]pyridin-2-one] | pIC50 [1, 8]: > 6.30; pIC50 [2, 9]: > 6.30; pIC50 [3, 10]: < 5.30 |
| > 6.30 | > 6.30 | > 6.30 | < 5.30 | CCS(=O)(=O)Nc1ncc(Oc2ccc(F)cc2F)c(-c2cn(C)c(=O)c3ccccc23)n1 [Example 170, N-[5-(2,4-difluorophenoxy)-4-(2-methyl-1-oxoisoquinolin-4-yl)pyrimidin-2-yl]ethanesulfonamide] | – |

| Molecule | pIC50 (BRD4(BD1); [7]) | pIC50 [1, 11] | pIC50 [2, 12] | pIC50 [3, 13] | also measured |
| --- | --- | --- | --- | --- | --- |
| 4-[5-(cyclopropylmethoxy)-2-methylsulfonylpyridin-4-yl]-7-fluoro-2-methylisoquinolin-1-one [Example 203] | > 6.30 | – | – | – | pIC50 ([1]; Cell-MTS proliferation): > 6.30; pIC50 ([2]; Cell-MTS proliferation): > 6.30; pIC50 ([3]; Cell-MTS proliferation): < 5.30 |
